According to patent US5514706A, “Pharmaceutical compounds” (Eli Lilly and Company, priority 1994, dated 1996):
pIC50: −log10 of the molar value.

What was measured:
Type in all cases: cell-based
[1] = tested on: plasminogen activator (PA) activity in bovine retinal capillary endothelial cells; test: Inhibition of phorbol ester-induced activation of retinal capillary endothelial cells (plasminogen activator (PA) activity in cell lysates); conditions: Bos taurus, activated with 50 nM 4-b PDBu, 48 hours, cell lysate, read-out: PA ED50
Text: (§1) Retinal capillary endothelial cell cultures were initiated from bovine eyes using a modification of the procedure of Buzney et al., Investigative Ophthalmology and Visual Sciences, 24: 470-483. Bovine eyes were transported on ice from a local abattoir. Extraocular muscle was trimmed from the eye, and the eye bisected posterior to the ora serrata. The vitreous and anterior portion of the eye were discarded, and the neuro-retina was gently dissected from the posterior eyecup. The retinas from 20 cattle were pooled and homogenized (5 strokes of a Teflon/glass homogenizer) in Hank's saline. The homogenate was passed through a 350μ filter to remove large debris and a 210μ filter to remove large vessels. The microvessels were trapped on a 85μ filter. The microvessels were resuspended in Hank's saline and digested with 7.5 mg/ml bacterial collagenase (Boeringher Mannhelm, Indianapolis) in Hank's saline for 1 hour at 37° C. The cells were pelleted by centrifugation (100 xg, 10 min), resuspended in 5 ml Endothelial Growth Media (EGM, Clonetics) and seeded in a gelatin-coated T-25 flask. After 24 hours the cells were trypsinized and replated in a gelatin coated T225. At 7 days and again at 14 days the cultures were labeled with acetylated lipoproteins labeled with the fluorescent probe (1,1'-dioctadecyl-3,3,3,3,-tetramethyl-indocarbocyanine perchlorate). The endothelial cells were separated from contaminating cell types using a fluorescent cell sorter as described in Voyta et al., J. Cell Biology. 99: 2034-2040.
(§2) Retinal capillary endothelial cells were seeded into 96-well plates and grown to confluence (10^5 cells/well) in EGM containing 10% fetal bovine serum (FBS). The media was changed to Dubecco's Modified Eagle's Medium with 10% fetal bovine serum 24 hours prior to the assay. The cells were treated with 50 nM 4-b phorbol 12,13-dibutyrate (4-b PDBu) to activate PKC and produce the activated endothelial phenotype characteristic of the diabetic state. The activated cells were treated with a series of dilutions of the test compounds. The phorbol esters and the test compounds were dissolved in DMSO before adding to the culture media. The cultures were incubated at 37° C. for 48 hours. Following treatment, the cells were lysed with 25 mM NH4 OH in 0.5% triton X-100.
(§3) The activation of bovine retinal capillary endothelial cells was monitored through alterations in cellular plasminogen activator (PA) activity in the cell lysates. Plasminogen activator activity was determined in a 50 μl aliquot of cell lysate using the synthetic substrate H-D-valyl-L-leucyl-lysine-p-nitroaniline dihydrochloride (Kabi).
Cell toxicity was determined in a parallel series of cultures using a neutral red assay. Borenfreund, E. and Puerner, J, J. Tiss. Cult. Meth. 9:7 (1984). […] Table 1 discloses the PA ED50 value in this model for representative compounds. The in vitro endothelial cell model was correlated with in situ and in vivo activities by the following models.

[2] = tested on: cultured smooth cells derived from rabbit aorta; test: 3H-thymidine incorporation (DNA synthesis) in vascular smooth muscle cells stimulated with platelet-derived growth factor; conditions: Oryctolagus cuniculus; 20 ng/ml platelet-derived growth factor, 24 hours
Description: Cells are obtained by explant method as described in Ross, J. Of Cell Bio. 50: 172 (1971). Cells are plated in 96 well microtiter plates for five days. The cultures become confluent and growth arrested. The cells are then transferred to Dulbecco's Modified Eagle's Medium (DMEM) containing 0.5-2% platelet poor plasma, 2 mM L-glutamine, 100 U/ml penicillin, 100 μg ml streptomycin, 1 μ/ml ^3 H-thymidine, 20 ng/ml platelet-derived growth factor and varying concentrations of the compounds. Stock solution of compounds is prepared in dimethyl sulphoxide and then diluted to appropriate concentration (0.01-10 μg/ml) in the above assay medium. Cells are then incubated at 37° C. for 24 hours under 5% CO2 /95% air. At the end of 24 hours, the cells are fixed in methanol. ^3 H thymidine incorporation in DNA was then determined by scintillation counting as described in Bonin et al., Exp. Cell Res. 181:475-482 (1989).
Table 1 discloses the IC50 value of representative compounds tested in the ^3 H-thymidine incorporation model. Thus the invention specifically provides a method of treating restenosis, which comprises administering to a patient in need of treatment an effective amount of a compound of the formula (I).

[3] = tested on: plasminogen activator (PA) activity in bovine retinal capillary endothelial cells; test: Activation of retinal capillary endothelial cells by phorbol esters (PA activity); conditions: for pIC50: Bos taurus, Endothelial cell, dose-response curves of PA activity, read-out: IC50 from dose-response curves for phorbol ester (activation of PA activity)
Text: as §1, §2, §3
There was also a two fold increase in cell number. […] Dose-response curves generated for 4-b PDBu and 4-b PMA indicated IC50 of 50 nH and 5 nH respectively. Elevated PA activity was observed only after prolonged (at least 8 hours) stimulation with phorbol esters. The PA activity continued to increase in a time and dose dependent manner for up to 72 hours, but constant stimulation with phorbol ester was required to maintain endothelial cell activation.

[4] = tested on: bovine retinal capillary endothelial cells; test: Retinal capillary endothelial cell number after phorbol ester treatment; conditions: confluent cells, 48 hours
Text: as §1, with “The endothelial cells were separated from contaminating cell types using a fluorescent cell sorter as described in Voyta et al., J. Cell Biology. 99: 2034-2040.” left out

pIC50 [1]	SMILES	pIC50 [2]	also measured
< 4.70	COc1ccc2ccc3c(c2c1)C(c1cccc([N+](=O)[O-])c1)C(C#N)=C(N)O3 (stereo not drawn) [Example 13, 2-Amino-6-methoxy-4-(3-nitrophenyl)-4H-naphtho 2,1-b!pyran-3-carbonitrile]	< 5.52	
5.30	N#CC1=C(N)Oc2ccc3cc(C(=O)O)ccc3c2C1c1cccc(C(=O)O)c1 (stereo not drawn) [Example 15, 2-Amino-3-cyano-4-(3-carboxyphenyl)-4H-naphtho 2,1-b!pyran-7-carboxylic acid]		
< 4.70	N#CC1=C(N)Oc2ccc3cc(C(=O)O)ccc3c2C1c1cccc([N+](=O)[O-])c1 (stereo not drawn) [Example 11, 2-Amino-3-cyano-4-(3-nitrophenyl)-4H-naphtho 2,1-b!pyran-7-carboxylic acid]	< 4.52	
6.00	N#CC1=C(N)Oc2ccc3ccccc3c2C1c1cccc(Cl)c1 (stereo not drawn) [Example 6, 2-Amino-4-(3-chlorophenyl)-4H-naphtho 2,1-b!pyran-3-carbonitrile]	5.70	
< 4.00	N#CC1=C(N)Oc2ccc3cc(C(=O)O)ccc3c2C1c1cccc(OC(F)(F)F)c1 (stereo not drawn) [Example 16, 2-Amino-3-cyano-4-3-(trifluoromethoxy)phenyl!-4H-naphtho 2,1-b!pyran-7-carboxylic acid]		
< 4.00	COc1cccc(C2C(C#N)=C(N)Oc3ccc4cc(C(=O)O)ccc4c32)c1 (stereo not drawn) [Example 14, 2-Amino-3-cyano-4-(3-methoxyphenyl)-4H-naphtho 2,1-b!pyran-7-carboxylic acid]		
6.15	N#CC1=C(N)Oc2ccc3ccccc3c2C1c1cccc(Br)c1 (stereo not drawn) [Example 5, 2-Amino-4-(3-bromophenyl)-4H-naphtho 2,1-b!pyran-3-carbonitrile]	5.74	

Second part, the molecule before the results:

SMILES	pIC50 [1]	pIC50 [2]	also measured
N#CC1=C(N)Oc2ccc3ccccc3c2C1c1ccc(F)cc1 (stereo not drawn) [Example 8, 2-Amino-4-(4-fluorophenyl)-4H-naphtho 2,1-b!pyran-3-carbonitrile]	5.05	5.82	
N#CC1=C(N)Oc2ccc3ccccc3c2C1c1ccccc1F (stereo not drawn) [Example 9, 2-Amino-4-(2-fluorophenyl) -4H-naphtho 2,1-b!pyran-3-carbonitrile]	< 4.70	< 5.52	
CCCC(=O)O[C@@H]1[C@@H](C)[C@@]2(O)[C@@H](C=C(CO)C[C@]3(O)C(=O)C(C)=C[C@@H]23)[C@@H]2C(C)(C)[C@]12OC(=O)CCC [4-b PDBu, 4-b phorbol 12,13-dibutyrate]			increase in activation occurred only after treatment with phorbol esters known to activate PKC (yes/no) [3]: increase in activation occurred; pIC50 [3]: 7.30; increase in PA activity associated with the cell layer ([3]; confluent cells, 48 hours): 12 fold; increase in PA released into the media ([3]; confluent cells, 48 hours): 12 fold; increase in cell number [4]: two
N#CC1=C(N)Oc2ccc3ccccc3c2C1c1cccc([N+](=O)[O-])c1 (stereo not drawn) [Example 2, 2-Amino-4-(3-nitrophenyl) -4H-naphtho 2,1-b!pyran-3-carbonitrile]	6.15	5.60	
N#CC1=C(N)Oc2ccc3ccccc3c2C1c1ccc([N+](=O)[O-])cc1 (stereo not drawn) [Example 3, 2-Amino-4-(4-nitrophenyl)-4H-naphtho 2,1-b!pyran-3-carbonitrile]	< 4.70	5.10	
CCOC=NC1=C(C#N)C(c2cccc([N+](=O)[O-])c2)c2c(ccc3cc(C(=O)OCC)ccc23)O1 (stereo not drawn) [Example 17, Ethyl 3-cyano-2-ethoxymethyleneamino-4-(3-nitrophenyl)-4H-naphtho 2,1-b!pyran-7-carboxylate]	5.10	5.22	
N#CC1=C(N)Oc2ccc3ccccc3c2C1c1cccc(C(F)(F)F)c1 (stereo not drawn) [Example 10, 2-Amino-4-3-(trifluoromethyl)phenyl!-4H-naphtho 2,1-b!pyran-3-carbonitrile]	7.30	6.30	
CCCC(=O)O[C@@H]1[C@@H](C)[C@@]2(O)[C@@H](C=C(CO)C[C@@]3(O)C(=O)C(C)=C[C@@H]23)[C@@H]2C(C)(C)[C@]12OC(=O)CCC [4-a PDBu]			increase in activation occurred only after treatment with phorbol esters known to activate PKC (yes/no) [3]: not
N#CC1=C(N)Oc2ccc3ccccc3c2C1c1ccccc1[N+](=O)[O-] (stereo not drawn) [Example 4, 2-Amino-4-(2-nitrophenyl)-4H-naphtho 2,1-b!pyran-3-carbonitrile]	< 4.70	< 4.52	
N#CC1=C(N)Oc2ccc3ccccc3c2C1c1cccc(F)c1 (stereo not drawn) [Example 7, 2-Amino-4-(3-fluorophenyl)-4H-naphtho 2,1-b!pyran-3-carbonitrile]		5.70	
N#CC1=C(N)Oc2c(O)cc3ccccc3c2C1c1cccc([N+](=O)[O-])c1 (stereo not drawn) [Example 12, 2-Amino-10-hydroxy-4-(3-nitrophenyl)-4H-naphtho 2,1-b!pyran-3-carbonitrile]	6.19	5.52	
CCCCCCCCCCCCCC(=O)O[C@@H]1[C@@H](C)[C@@]2(O)[C@@H](C=C(CO)C[C@]3(O)C(=O)C(C)=C[C@@H]23)[C@@H]2C(C)(C)[C@]12OC(C)=O [4-b PMA]			increase in activation occurred only after treatment with phorbol esters known to activate PKC (yes/no) [3]: increase in activation occurred; pIC50 [3]: 8.30
